Measured values taken from patent publication US6924314B2, “Compounds for the treatment of metabolic disorders” (Wellstat Therapeutics Corporation, priority 2001, dated 2005).

How the values were obtained:
[1] = test system: db/db mice; assay: Antidiabetic effects in db/db mice, 2 weeks (Example I); format: in vivo, C57BL/Ksola mice; details: for Glucose / Glucose (% of Control): nonfasting; for Free Fatty Acids ± SEM / Triglycerides ± SEM: serum
From the text: (§1) db/db mice have a defect in leptin signaling, leading to hyperphagia, obesity and diabetes. Moreover, unlike ob/ob mice on a C57BL/6J background, db/db mice on a C57BL/KS background undergo failure of their insulin-producing pancreatic islet β cells, resulting in progression from hyperinsulinemia (associated with peripheral insulin resistance) to hypoinsulinemic diabetes.
(§2) A minimum of 7 days was allowed for adaptation after arrival.
Treatment cohorts were given daily oral doses of (1% hydroxypropylmethylcellulose), Compounds BI, BO, BP, BQ or BR for 2 weeks. At the end of the treatment period 100 μl of venous blood was withdrawn in a heparinized capillary tube from the retro-orbital sinus of db/db mice for serum chemistry analysis.

[2] = test system: db/db mice; assay: Antidiabetic effects in db/db mice, 2 weeks (Example J); format: in vivo, C57BL/Ksola mice; details: for Glucose / Glucose (% of Control): nonfasting; for Free Fatty Acids ± SEM / Triglycerides ± SEM: serum, daily oral
From the text: as §1, with “islet” for “islet β”
as §2
Treatment cohorts were given daily oral doses of Vehicle (1% hydroxypropylmethylcellulose), Compounds BI, BS, BT, BU, BV or Fenofibrate for 2 weeks. At the end of the treatment period 100 μl of venous blood was withdrawn in a heparinized capillary tube from the retro-orbital sinus of db/db mice for serum chemistry analysis.

[3] = test system: ob/ob obese diabetic mice; assay: Acute hypoglycemic effect in ob/ob obese diabetic mice: Experiment 1; format: in vivo
Procedure: Male ob/ob diabetic mice were randomized into groups of five animals each. Body weights were 50-55 g and blood glucose was approximately 300 mg/dL in the fed state. A single oral dose of a test substance suspended in 0.5% carboxymethylcellulose vehicle was administered by gavage. Blood glucose was measured in blood droplets obtained by nicking a tail vein with a razor using glucometer test strips and a Glucometer Elite XL device (Bayer) at 0, 0.5, 2, 4, 6 and 18 hours after the initial dosing. A 10% reduction in blood glucose versus oral vehicle is considered a positive screening result. Blood glucose reductions were generally maximal at 6 hours after drug administration.

[4] = single oral dose by gavage, 6 hours

COc1cccc(OC)c1COc1cccc(C(=O)CCC(=O)O)c1 [BO, 4-(3-(2,6-Dimethoxybenzyloxy)phenyl)-4-oxobutyric acid]
Glucose ([1]; 100 mg/kg daily oral): 586 ± 58 mg/dL | Glucose (% of Control) ([1]; 100 mg/kg daily oral): 93 ± 9 % of Control | Free Fatty Acids ± SEM ([1]; 100 mg/kg daily oral): 3766.3 ± 234.5 µM | Triglycerides ± SEM ([1]; 100 mg/kg daily oral): 261.1 ± 24.3 mg/dL

Cc1cccc(C)c1COc1cccc(C(=O)CC(C)(C)C(=O)O)c1 [BP, 4-(3-(2,6-Dimethylbenzyloxy)phenyl)-4-oxo-2,2-dimethylbutyric acid]
Glucose ([1]; 100 mg/kg daily oral): 629 ± 86 mg/dL | Glucose (% of Control) ([1]; 100 mg/kg daily oral): 99 ± 14 % of Control | Free Fatty Acids ± SEM ([1]; 100 mg/kg daily oral): 3772.6 ± 182.5 µM | Triglycerides ± SEM ([1]; 100 mg/kg daily oral): 302.1 ± 28.1 mg/dL

O=C(O)CCC(=O)c1cccc(OCc2ccc(C(F)(F)F)cc2)c1 [BQ, 4-(3-(4-Trifluoromethylbenzyloxy)phenyl)-4-oxobutyric acid]
Glucose ([1]; 100 mg/kg daily oral): 473 ± 49 mg/dL | Glucose (% of Control) ([1]; 100 mg/kg daily oral): 75 ± 7 % of Control | Free Fatty Acids ± SEM ([1]; 100 mg/kg daily oral): 2825.9 ± 110.9 µM | Triglycerides ± SEM ([1]; 100 mg/kg daily oral): 131.6 ± 20.7 mg/dL

O=C(O)CCC(=O)c1cccc(OCC2CCC2)c1 [BR, 4-(3-((Cyclobutyl)-methoxy)phenyl)-4-oxobutyric acid]
Glucose ([1]; 82 mg/kg daily oral): 703 ± 64 mg/dL | Glucose (% of Control) ([1]; 82 mg/kg daily oral): 111 ± 10 % of Control | Free Fatty Acids ± SEM ([1]; 82 mg/kg daily oral): 3653.4 ± 207.5 µM | Triglycerides ± SEM ([1]; 82 mg/kg daily oral): 253.0 ± 32.0 mg/dL

Cc1cccc(C)c1COc1cccc(CCCC(=O)O)c1 [BS, 4-(3-(2,6-Dimethylbenzyloxy)phenyl)butyric acid]
Glucose ([2]; 93 mg/kg daily oral): 372.0 ± 53.8 mg/dL | Glucose (% of Control) ([2]; 93 mg/kg daily oral): 54 ± 8 % of Control | Free Fatty Acids ± SEM ([2]; dose per Table 12: 93 mg/kg): 2867.4 ± 267.7 µM | Triglycerides ± SEM ([2]; dose per Table 12: 93 mg/kg): 132.0 ± 15.2 mg/dL

COc1cc(C(=O)CCC(=O)O)ccc1OCc1c(C)cccc1C [BT, 4-[[4-(2,6-Dimethylbenzyloxy)-3-methoxy]phenyl]-4-oxobutyric acid]
Glucose ([2]; 107 mg/kg daily oral): 684.3 ± 63.6 mg/dL | Glucose (% of Control) ([2]; 107 mg/kg daily oral): 99 ± 9 % of Control | Free Fatty Acids ± SEM ([2]; dose per Table 12: 107 mg/kg): 3897.7 ± 291.3 µM | Triglycerides ± SEM ([2]; dose per Table 12: 107 mg/kg): 211.5 ± 21.5 mg/dL

COc1ccccc1COc1ccc(C(=O)CCC(=O)O)cc1 [Compound AB, 4-(4-(2-Methoxybenzyloxy)phenyl)-4-oxobutyric acid]
% Reduction vs Control [3, 4]: −39.1 ± 6.4% | Blood Glucose after 6 hours [3, 4]: 181 ± 19 mg/dL

O=C(O)CCC(=O)c1ccc(OCc2ccccn2)cc1 [Compound AF, 4-(4-((2-Pyridinyl)-methoxy)phenyl)-4-oxobutyric acid]
Blood Glucose after 6 hours [3, 4]: 314 ± 32 mg/dL | % Reduction vs Control ([3]; single oral dose, 6 hour reading normalized to initial blood glucose of this group, 416 ± 29 mg/dL): −24.6 ± 7.7 %

O=C(O)CCC(=O)c1ccc(OCc2ccccc2)cc1 [Compound AG, 4-(4-(Benzyloxy)phenyl)-4-oxobutyric acid]
% Reduction vs Control [3, 4]: −25.3 ± 7.7% | Blood Glucose after 6 hours [3, 4]: 222 ± 23 mg/dL

O=C(O)CCC(=O)c1ccc(OCc2ccccc2Cl)cc1 [Compound AI, 4-(4-(2-Chlorobenzyloxy)phenyl)-4-oxobutyric acid]
% Reduction vs Control [3, 4]: −14.1 ± 3.0% | Blood Glucose after 6 hours [3, 4]: 255 ± 9 mg/dL

O=C(O)CCC(=O)c1ccc(OCCc2ccccc2F)cc1 [Compound AJ, 4-(4-(2-(2-Fluorophenyl)ethoxy)phenyl)-4-oxobutyric acid]
% Reduction vs Control [3, 4]: −36.0 ± 4.7% | Blood Glucose after 6 hours [3, 4]: 190 ± 14 mg/dL

CCOC(=O)CCC(=O)c1ccc(OCc2ccccc2F)cc1 [Compound AK, Ethyl 4-(4-(2-fluorobenzyloxyl)phenyl)-4-oxobutyrate]
% Reduction vs Control [3, 4]: −29.3 ± 3.4% | Blood Glucose after 6 hours [3, 4]: 210 ± 10 mg/dL

Cc1ccccc1COc1ccc(C(=O)CCC(=O)O)cc1 [Compound AL, 4-(4-(2-Methylbenzyloxy)phenyl)-4-oxobutyric acid]
% Reduction vs Control [3, 4]: −43.4 ± 4.4% | Blood Glucose after 6 hours [3, 4]: 168 ± 13 mg/dL
